Assays:
[1] = Antiinflammatory activity in LPS-stimulated mouse BV2 cells assessed as inhibition of NO production at 40 uM after 24 hrs by Griess method relative to control; assay type: functional; conditions: BV-2, 24 h
[2] = Cytotoxicity against mouse BV2 cells assessed as cell viability at 40 uM after 24 hrs by MTT assay relative to control; assay type: cell-based, BV-2; conditions: read-out: Activity

SMILES: C=C[C@@H](C)[C@H]1CC[C@H]2[C@@H]3[C@H](O)C(=O)[C@H]4C[C@H](O)CC[C@]4(C)[C@H]3CC[C@]12C
- inhibition at 40 µM [1]: 69.6%
- viability at 24 h, 40 µM [2]: 76.6%

SMILES: C=C[C@@H](C)[C@H]1CC[C@H]2[C@@H]3[C@H](F)C(=O)[C@H]4C[C@H](O)[C@@H](F)C[C@]4(C)[C@H]3CC[C@]12C
- inhibition at 40 µM [1]: 63.8%
- viability at 24 h, 40 µM [2]: 86.8%

SMILES: COC(=O)CC[C@@H](C)[C@H]1CC[C@H]2[C@@H]3CC(=O)[C@H]4C[C@H](O)[C@@H](O)C[C@]4(C)[C@H]3CC[C@]12C
- inhibition at 40 µM [1]: 44.9%
- viability at 24 h, 40 µM [2]: 79.5%

SMILES: C=C[C@@H](C)[C@H]1CC[C@H]2[C@@H]3[C@H](F)C(=O)[C@H]4C[C@H](O)CC[C@]4(C)[C@H]3CC[C@]12C
- inhibition at 40 µM [1]: 44.5%
- viability at 24 h, 40 µM [2]: 76.6%

SMILES: C[C@H]([C@H](O)CO)[C@H]1CC[C@H]2[C@@H]3[C@H](O)C(=O)[C@H]4C[C@H](O)CC[C@]4(C)[C@H]3CC[C@]12C
- inhibition at 40 µM [1]: 47.1%
- viability at 24 h, 40 µM [2]: 95.7%

SMILES: COC(=O)CC[C@@H](C)[C@H]1CC[C@H]2[C@@H]3CC(=O)[C@H]4C[C@H](O)CC[C@]4(C)[C@H]3CC[C@]12C
- inhibition at 40 µM [1]: 39.4%
- viability at 24 h, 40 µM [2]: 87.7%

SMILES: C[C@H]([C@H](O)CO)[C@H]1CC[C@H]2[C@@H]3[C@H](F)C(=O)[C@H]4C[C@@H](F)CC[C@]4(C)[C@H]3CC[C@]12C
- inhibition at 40 µM [1]: 35.9%
- viability at 24 h, 40 µM [2]: 81.7%

SMILES: COC(=O)CC[C@@H](C)[C@H]1CC[C@H]2[C@@H]3CC(=O)[C@H]4C[C@@H](O)CC[C@]4(C)[C@H]3CC[C@]12C
- inhibition at 40 µM [1]: 18.1%
- viability at 24 h, 40 µM [2]: 27.8%

SMILES: C[C@H]([C@H](O)CO)[C@H]1CC[C@H]2[C@@H]3[C@H](O)C(=O)[C@H]4C[C@@H](F)CC[C@]4(C)[C@H]3CC[C@]12C
- inhibition at 40 µM [1]: 91.9%
- viability at 24 h, 40 µM [2]: 78.6%

SMILES: COC(=O)CC[C@@H](C)[C@H]1CC[C@H]2[C@@H]3CC(=O)[C@H]4CC(=O)CC[C@]4(C)[C@H]3CC[C@]12C
- inhibition at 40 µM [1]: 48.2%
- viability at 24 h, 40 µM [2]: 78%

SMILES: COC(=O)CC[C@@H](C)[C@H]1CC[C@H]2[C@@H]3CC(=O)[C@H]4C[C@H](O)[C@@H](F)C[C@]4(C)[C@H]3CC[C@]12C
- inhibition at 40 µM [1]: 46.1%
- viability at 24 h, 40 µM [2]: 95.8%

SMILES: COC(=O)CC[C@@H](C)[C@H]1CC[C@H]2[C@@H]3CC(=O)[C@H]4C[C@@H]5O[C@@H]5C[C@]4(C)[C@H]3CC[C@]12C
- inhibition at 40 µM [1]: 48.6%
- viability at 24 h, 40 µM [2]: 99.5%

SMILES: C=C[C@@H](C)[C@H]1CC[C@H]2[C@@H]3CC(=O)[C@H]4C[C@H](O)[C@H](O)C[C@]4(C)[C@H]3CC[C@]12C
- inhibition at 40 µM [1]: 65.7%
- viability at 24 h, 40 µM [2]: 48.2%

SMILES: C=C[C@@H](C)[C@H]1CC[C@H]2[C@@H]3CC(=O)[C@H]4C[C@H](O)CC[C@]4(C)[C@H]3CC[C@]12C
- inhibition at 40 µM [1]: 24.5%
- viability at 24 h, 40 µM [2]: 96.4%

SMILES: C[C@]12CC[C@H](O)CC1=CC[C@@H]1[C@@H]2CC[C@]2(C)C(=O)CC[C@@H]12 [PRASTERONE]
- inhibition at 40 µM [1]: 55.3%
- viability at 24 h, 40 µM [2]: 99.1%

SMILES: COC(=O)CC[C@@H](C)[C@H]1CC[C@H]2[C@@H]3CC(=O)[C@H]4C[C@@H](Br)CC[C@]4(C)[C@H]3CC[C@]12C
- inhibition at 40 µM [1]: 41.5%
- viability at 24 h, 40 µM [2]: 81.5%

SMILES: COC(=O)CC[C@@H](C)[C@H]1CC[C@H]2[C@@H]3[C@H](F)C(=O)[C@H]4C[C@H](O)CC[C@]4(C)[C@H]3CC[C@]12C
- inhibition at 40 µM [1]: 47.2%
- viability at 24 h, 40 µM [2]: 73.7%

SMILES: COC(=O)CC[C@@H](C)[C@H]1CC[C@H]2[C@@H]3CC(=O)[C@H]4C[C@@H](F)CC[C@]4(C)[C@H]3CC[C@]12C
- inhibition at 40 µM [1]: 43.5%
- viability at 24 h, 40 µM [2]: 84.1%

SMILES: C=C[C@@H](C)[C@H]1CC[C@H]2[C@@H]3[C@H](O)C(=O)[C@H]4C[C@@H](O)CC[C@]4(C)[C@H]3CC[C@]12C
- inhibition at 40 µM [1]: 59.5%
- viability at 24 h, 40 µM [2]: 81.8%

SMILES: COC(=O)CC[C@@H](C)[C@H]1CC[C@H]2[C@@H]3CC(=O)[C@H]4C[C@H](O)[C@@H](Br)C[C@]4(C)[C@H]3CC[C@]12C
- inhibition at 40 µM [1]: 42.7%
- viability at 24 h, 40 µM [2]: 91.4%

SMILES: COC(=O)CC[C@@H](C)[C@H]1CC[C@H]2[C@@H]3[C@H](F)C(=O)[C@H]4C[C@@H](F)CC[C@]4(C)[C@H]3CC[C@]12C
- inhibition at 40 µM [1]: 39.1%
- viability at 24 h, 40 µM [2]: 92.2%

SMILES: C=C[C@@H](C)[C@H]1CC[C@H]2[C@@H]3[C@H](O)C(=O)[C@H]4C[C@@H](F)CC[C@]4(C)[C@H]3CC[C@]12C
- inhibition at 40 µM [1]: 43.2%
- viability at 24 h, 40 µM [2]: 87%

SMILES: COC(=O)CC[C@@H](C)[C@H]1CC[C@H]2[C@@H]3CC(=O)[C@H]4C[C@H](O)[C@H](O)C[C@]4(C)[C@H]3CC[C@]12C
- inhibition at 40 µM [1]: 74.1%
- viability at 24 h, 40 µM [2]: 81.1%

SMILES: COC(=O)CC[C@@H](C)[C@H]1CC[C@H]2[C@@H]3CC(=O)[C@H]4C[C@@H](Cl)CC[C@]4(C)[C@H]3CC[C@]12C
- inhibition at 40 µM [1]: 35.9%
- viability at 24 h, 40 µM [2]: 79%

SMILES: COC(=O)CC[C@@H](C)[C@H]1CC[C@H]2[C@@H]3[C@H](F)C(=O)[C@H]4C[C@@H]5O[C@@H]5C[C@]4(C)[C@H]3CC[C@]12C
- inhibition at 40 µM [1]: 32.6%
- viability at 24 h, 40 µM [2]: 97.2%

SMILES: COC(=O)CC[C@@H](C)[C@H]1CC[C@H]2[C@@H]3[C@H](F)C(=O)[C@H]4C[C@@H](O)CC[C@]4(C)[C@H]3CC[C@]12C
- inhibition at 40 µM [1]: 43.9%
- viability at 24 h, 40 µM [2]: 23.1%

SMILES: C=C[C@@H](C)[C@H]1CC[C@H]2[C@@H]3[C@H](O)C(=O)[C@H]4C[C@H](O)[C@@H](F)C[C@]4(C)[C@H]3CC[C@]12C
- inhibition at 40 µM [1]: 92.7%
- viability at 24 h, 40 µM [2]: 55.9%

SMILES: COC(=O)CC[C@@H](C)[C@H]1CC[C@H]2[C@@H]3[C@H](F)C(=O)[C@H]4C[C@H](O)[C@H](O)C[C@]4(C)[C@H]3CC[C@]12C
- inhibition at 40 µM [1]: 72.4%
- viability at 24 h, 40 µM [2]: 69.9%

SMILES: COC(=O)CC[C@@H](C)[C@H]1CC[C@H]2[C@@H]3[C@H](O)C(=O)[C@H]4C[C@H](O)[C@@H](F)C[C@]4(C)[C@H]3CC[C@]12C
- inhibition at 40 µM [1]: 75.1%
- viability at 24 h, 40 µM [2]: 80.5%

SMILES: C[C@H]([C@H](O)CO)[C@H]1CC[C@H]2[C@@H]3CC(=O)[C@H]4C[C@H](O)[C@H](O)C[C@]4(C)[C@H]3CC[C@]12C
- inhibition at 40 µM [1]: 22.6%
- viability at 24 h, 40 µM [2]: 94%

SMILES: COC(=O)CC[C@@H](C)[C@H]1CC[C@H]2[C@@H]3[C@H](F)C(=O)[C@H]4C[C@H](O)[C@@H](O)C[C@]4(C)[C@H]3CC[C@]12C
- inhibition at 40 µM [1]: 68.1%
- viability at 24 h, 40 µM [2]: 50.8%

Source: ChEMBL document CHEMBL3112432, “Synthesis of 5α-cholestan-6-one derivatives and their inhibitory activities of NO production in activated microglia: discovery of a novel neuroinflammation inhibitor” (Bioorg Med Chem Lett, 2014)
